According to PubChem BioAssay AID179 (DTP/NCI, 2004):
Calls of active or inactive are those of the source.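 The calls were made as follows: active = compounds giving half or more protection of infected cells from virus-caused growth loss, again on retest; inactive = the rest.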 Where a SMILES comes first, the peptide text is derived from it. The star is where a group is joined. Bn = c1ccc(C*)cc1

Test system: CEM cells HIV-1 protection, formazan growth assay
Assay: NCI AIDS Antiviral Assay
Conditions: for IC50: measured here: growth of uninfected CEM cells
Summary of the method: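 Five concentrations of each compound were applied to infected and uninfected human CEM cells. Protection from HIV-1 was judged from growth measured with a soluble formazan assay.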

CCOC(=O)N1N=C(c2ccccc2)OC2(N3CCOCC3)CCC(C(C)(C)C)CC12 (stereo not given)
EC50: 30.2 µM
IC50: 31.6 µM

O=C1OC(=O)C2=C1C1C=CC2O1
EC50: > 1070 µM
IC50: 295 µM

O=C(c1ccc(Cl)cc1)c1ccc(OCCCCCCCCCCOc2ccc(C(=O)c3ccc(Cl)cc3)cc2)cc1
EC50: > 16.6 µM
IC50: > 16.6 µM

N#CCCN(CCC#N)C(=O)c1cccc(C(=O)N(CCC#N)CCC#N)c1
outcome: inactive

C=CCCCN1CCCCC1=S
EC50: > 251 µM
IC50: > 251 µM

C=C1CN(S(=O)(=O)c2ccc([N+](=O)[O-])cc2)CC(=C)CN(S(=O)(=O)c2ccc([N+](=O)[O-])cc2)C1
EC50: > 200 µM
IC50: > 200 µM

CC(C)(C)[Si](C)(C)OCC1OC(n2cnc3c(=O)[nH]c(NCc4cccc5ccccc45)nc32)C(O[Si](C)(C)C(C)(C)C)C1O[Si](C)(C)C(C)(C)C (stereo not given)
EC50: > 200 µM
IC50: > 200 µM

COC(=O)CC(C(C(=O)OC)C(=O)OC)N1C(=O)OCC1c1ccccc1 (stereo not given)
EC50: > 135 µM
IC50: > 135 µM

C=C(Br)CNC(=O)Nc1ccc(Cl)c(Cl)c1
EC50: > 200 µM
IC50: 21.9 µM

CCOC(=O)/C(C=Nc1c(C)n(C)n(-c2ccccc2)c1=O)=C(/C)O
EC50: > 200 µM
IC50: > 200 µM

O=C(/C=C/c1ccc(Cl)cc1)c1ccc(Cl)s1
EC50: > 200 µM

Nc1ncnc2c1ncn2C1C=CC(CO)CC1 (stereo not given)
EC50: > 200 µM
IC50: > 200 µM

Cn1c(=O)sc2cc(C(=S)N3CCC(Cc4ccccc4)CC3)ccc21
EC50: > 200 µM
IC50: 36.3 µM

O=C(CC(C(=O)c1ccco1)c1ccsc1)c1ccco1 (stereo not given)
EC50: > 200 µM
IC50: 107 µM

C/C=C\CCC1CCCCN(C(=O)OC(C)(C)C)C1OCC (stereo not given)
EC50: > 158 µM
IC50: > 158 µM

C=C1CC2C[C@H](OS(=O)(=O)c3ccc(C)cc3)C(C1)N2C (stereo not given in full)
EC50: > 200 µM
IC50: > 200 µM

COc1ccc(C2[C@H]3C(=O)N(c4ccc(Cc5ccc(N6C(=O)[C@@H]7ON(c8ccccc8)C(c8ccc(OC)cc8)[C@@H]7C6=O)cc5)cc4)C(=O)[C@H]3ON2c2ccccc2)cc1 (stereo not given in full)
EC50: > 4.68 µM
IC50: > 4.68 µM

O=Nc1c2cc3ccccc3[nH]c-2c2ccccc12
EC50: > 40.7 µM
IC50: 20.4 µM

O=Nc1c(Br)cc(Br)c2ccc3c(Br)cc(Br)c(N=O)c3c12
EC50: > 50.1 µM
IC50: > 50.1 µM

C=C(CS(=O)(=O)c1ccccc1)C(=O)OCC
outcome: inactive

CC(C)(C)C1CCC2c3c([nH]c4ccccc34)C3C(=O)N(c4ccccc4)C(=O)C3C2C1 (stereo not given)
outcome: inactive

Cc1cc2c(C(C)C)c(O)c(O)c(C=Nc3ccc(Cl)cc3)c2c(O)c1-c1c(C)cc2c(C(C)C)c(O)c(O)c(C=Nc3ccc(Cl)cc3)c2c1O
EC50: > 200 µM
IC50: 11.7 µM

CNC(=O)C(CC(C)C)NC(=O)CNC(=O)C(Cc1ccc(OCc2ccccc2)cc1)NC(=O)C(COCc1ccccc1)NC(C)=O (stereo not given) (Ac-S(Bn)Y(Bn)GL-NHMe; configuration not given here)
EC50: > 200 µM
IC50: 37.2 µM

N#CC(C(=O)C(=O)Nc1c(Cl)cccc1Cl)c1ccccc1 (stereo not given)
outcome: inactive

CC1(C)CCC2(C)N(c3ccccc3)C(=O)ON12 (stereo not given)
EC50: > 200 µM
IC50: > 200 µM

COc1cc(/C=C/c2sc3ccccc3[n+]2C)ccc1N(C)C
EC50: > 200 µM
IC50: 3.24 µM

O=C1c2ccccc2C2C1N2C(=O)C(F)(F)F (stereo not given)
EC50: > 148 µM
IC50: 24.5 µM

NNC(=S)N/N=C(\C(=O)Nc1cccc(O)c1)C1C(=O)NC(=S)NC1=O
EC50: > 631 µM
IC50: 447 µM

COc1ccc(OC)c(NCC(=O)Nn2cnc3ccc(S(=O)(=O)Nc4cc(OC)ccc4OC)cc3c2=O)c1
EC50: > 200 µM
IC50: 33.9 µM

O=S1(=O)NNC(=NCc2ccc(Cl)cc2)c2ccccc21
outcome: inactive

CN(N)c1nc(N)c(C#N)c(C#N)c1C#N
EC50: > 100 µM
IC50: > 100 µM

COc1cc(OC)cc(OCc2ccc3nc(-c4ccccc4)c(Cl)nc3c2)c1
EC50: > 100 µM
IC50: > 100 µM

CSC1=N/C(=C\c2ccccc2)C(=O)N1CN1CCOCC1
EC50: > 200 µM
IC50: 87.1 µM

COc1ccc(C(=O)N/N=C/c2c(C)n(C)n(-c3ccccc3)c2=O)cc1
EC50: > 200 µM
IC50: > 200 µM

c1nncn1C12C3C4C5C3C1C5C42 (stereo not given)
EC50: > 200 µM
IC50: > 200 µM

NC(=S)NC/C=C/Cl
EC50: > 200 µM
IC50: > 200 µM

OC(C#CC(O)(c1ccccc1)c1ccccc1)(c1ccccc1)c1ccccc1
EC50: > 200 µM
IC50: 11 µM

CONC(CC(=O)c1ccccc1)c1ccccc1 (stereo not given)
EC50: > 4.07 µM
IC50: > 4.07 µM

O=C1c2ccccc2C(=O)c2nc3ccc(Cl)cc3cc21
EC50: > 6.17 µM
IC50: > 6.17 µM

O=C1C=C2CC3=CC(=O)C=C(CC4=CC(=O)C=C(CC5=CC(=O)C=C(CC(=C1)C2=O)C5=O)C4=O)C3=O
EC50: > 53.7 µM
IC50: 0.912 µM

CC1(C)C2CCC(=O)C1CC2 (stereo not given)
EC50: > 200 µM
IC50: > 200 µM

Cc1ccc(SS(=O)(=O)c2ccc(C)cc2)cc1
EC50: > 38 µM
IC50: 6.61 µM

CC1=C(C(=O)Nc2cc(=O)n(C)c(=O)n2C)C(c2ccco2)C(C(=O)Nc2cc(=O)n(C)c(=O)n2C)=C(C)N1
EC50: > 93.3 µM
IC50: > 93.3 µM

O=C1Oc2ccccc2CC1C(=O)c1ccc(Cl)cc1 (stereo not given)
EC50: > 18.2 µM
IC50: > 18.2 µM

Cc1nc(C)c(N2CCN(Cc3ccccc3)CC2)c(=O)[nH]1
EC50: > 200 µM
IC50: > 200 µM

COc1cccc(-n2c3nc(=O)n(C)c(=O)c-3nc3ccccc32)c1
outcome: inactive

COc1ccc2nc3cc(Cl)ccc3c(NCCC[N+](C)(C)CCCCCCCCCCCCCCCC[N+](C)(C)CCCNc3c4ccc(Cl)cc4nc4ccc(OC)cc34)c2c1
outcome: inactive

CC(=O)OC12c3ccccc3C1CCCC21OCCCO1 (stereo not given)
EC50: > 200 µM
IC50: > 200 µM

CC(=O)NCS(=O)(=O)O
EC50: > 200 µM
IC50: > 200 µM

Cc1ccc(C2NC(=S)N3C(c4ccc(C)cc4)NC(=S)N23)cc1 (stereo not given)
EC50: > 200 µM
IC50: 3.39 µM

O=C(O)C1(Cc2ccc3c(c2)CCC3)Cc2ccccc2C1
EC50: > 200 µM
IC50: 81.3 µM

COc1ccc2[nH]c3c(C)cc([N+](=O)[O-])c(C)c3c2c1
EC50: > 200 µM
IC50: 10.7 µM

NNc1cn[nH]c(=O)c1Cl
EC50: > 200 µM
IC50: > 200 µM

O=C(Nc1ccccc1Cl)c1cc2cc(N=Nc3ccc(Br)cc3)ccc2oc1=O
outcome: inactive

CC1C(=O)C2C1CS2(=O)=O (stereo not given)
EC50: > 1260 µM
IC50: 1120 µM

O=C1CCCC/C1=C/c1ccc(Cl)cc1
outcome: inactive

C/C(=N\NC(N)=S)c1cn(C2OC(CO)C(O)C2O)c(=O)[nH]c1=O (stereo not given)
outcome: inactive

CCN1C[C@]2(COC)CCC(O)C34[C@@H]5C[C@@H]6C(O)[C@@H]5[C@](O)(C[C@@H]6OC)[C@@H](C(OC)[C@@H]32)[C@H]14 (stereo not given in full)
outcome: inactive

CC(=O)/C(=C/c1ccc(Br)cc1)C(=O)c1ccccc1
outcome: inactive

CC(=O)Nc1cc(S(=O)(=O)O)cc2cc(S(=O)(=O)O)cc(O)c12
EC50: > 200 µM
IC50: > 200 µM

COC(=O)CC1NC(=O)[C@@H]1C(C)O (stereo not given in full)
EC50: > 251 µM
IC50: > 251 µM

O=S(O)CCCSSSCCCS(=O)O
outcome: inactive

Cc1cc2c(=O)cc(-c3cccs3)oc2c(C(=O)O)c1C
outcome: inactive

COc1ccc(-c2cc(-c3ccco3)c(C#N)c(=O)n2C2OC(OC(=O)c3ccccc3)C(OC(=O)c3ccccc3)C2OC(=O)c2ccccc2)cc1 (stereo not given)
EC50: > 7.24 µM
IC50: > 7.24 µM

COc1ccc(C2NC3=C(CCCC3)N2)cc1
EC50: > 155 µM
IC50: 26.3 µM

CC1=Nc2cc(C(=O)c3ccccc3)ccc2N=C(c2c(O)c3ccc4ccccc4c3oc2=O)C1
EC50: > 20 µM
IC50: > 20 µM

O=C1NCCCC12CCCNC2=O
EC50: > 20.9 µM
IC50: > 20.9 µM

COc1c2c3c4c(c(OC)c(=O)c5c(O)c(Br)c(OC)c(c6c(OC)c(Br)c(O)c(c1=O)c36)c54)C(C(C)=O)=C(C)C2
EC50: > 13.8 µM
IC50: 1.45 µM

Clc1cc(Br)c2c3c(c(Br)cc(Cl)c13)C(Br)=C2Br
EC50: > 200 µM
IC50: 20 µM

Cn1c(=O)c2[nH]cnc2n(CC(N)=O)c1=O
EC50: > 562 µM
IC50: > 562 µM

NC1=NN(c2ccccc2)C(=O)C1C(=O)C(=O)Nc1ccccc1 (stereo not given)
outcome: inactive

CCn1c2c(n(CC)c1=S)-c1c(n(CC)c(=S)n1CC)SSSS2
EC50: > 58.9 µM
IC50: > 58.9 µM

O[C@H]1c2cccn2-c2ccccc2S[C@H]1c1ccccc1
EC50: > 83.2 µM
IC50: 43.7 µM

Cc1nc(N)sc1C(=O)/C=C/c1ccc([N+](=O)[O-])cc1
EC50: > 871 µM
IC50: 57.5 µM

Cc1nc2ccccc2n1COC(Cn1ccnc1)c1ccc(Cl)cc1Cl (stereo not given)
EC50: > 200 µM
IC50: 135 µM

Cc1cc(NCCCCCCCNc2cc(C)nc3cc(N)ccc23)c2ccc(N)cc2n1
EC50: 5.89 µM
IC50: 8.71 µM

NNC(=S)N/N=C(/C(=O)Nc1cc(Cl)ccc1Cl)C1C(=O)Nc2ccccc2S1=O (stereo not given)
EC50: > 513 µM
IC50: 257 µM

O=c1cn[nH]c2cccc(Cl)c12
EC50: > 117 µM
IC50: > 117 µM

O=P1(C(c2ccccc2)c2ccccc2)OC2CC(Cl)CC(C2)O1 (stereo not given)
EC50: > 7.24 µM
IC50: > 7.24 µM

CC1C(c2ccc(N(C)C)cc2)c2cc3c(cc2OC1N1CCCC1)OCO3 (stereo not given)
EC50: > 100 µM
IC50: 17 µM

N#CCN1CCCCCC1
EC50: > 200 µM
IC50: > 200 µM

N#Cc1nc(CCC(c2nc(C#N)c(N)o2)N2C(=O)c3ccccc3C2=O)oc1N (stereo not given)
EC50: > 200 µM
IC50: > 200 µM

Cc1ccc(NC(Nc2ccc(C)cc2C)=C(C(Cl)=C(Cl)Cl)[N+](=O)[O-])c(C)c1
EC50: > 200 µM
IC50: 7.94 µM

O=C1C/C(=C\c2ccccc2)C(=O)c2ccccc2N1
EC50: > 200 µM
IC50: 12.6 µM

CC1(C)COC2(c3ccccc3)N(c3ccccc3)C(=O)ON12 (stereo not given)
EC50: > 200 µM
IC50: > 200 µM

Cc1c(-c2c(C)c(=O)c3c(C(C)C)c(=O)c(=O)c(C=O)c-3c2=O)c(O)c2c(C=O)c(O)c(O)c(C(C)C)c2c1O
EC50: > 13.2 µM
IC50: 7.08 µM

CCC1C(C)C=CN1c1nc(N)nc(NS(=O)(=O)c2cc(C)c(Cl)cc2S)n1 (stereo not given)
EC50: 129 µM
IC50: > 200 µM

CC(=O)OC1CCC(OC(C)=O)[C@H]2[C@@H]1[C@@H]1S[C@H]2c2ccccc21 (stereo not given in full)
EC50: > 200 µM
IC50: 42.7 µM
